# Legend:
# [1] = test system: adjuvant arthritis model; experiment: Adjuvant Arthritis Test; format: in vivo, 7 week old female Lewis rats; conditions: subcutaneous daily days 8-21
# Description: Multiple arthritis resembling human chronic articular rheumatism occurs when tubercule bacillus adjuvant is injected into rats. The antiinflammatory, antirheumatic and bone metabolism improving action of compounds of the present invention were investigated according to the following procedure using this adjuvant arthritis model.
# 0.1 mg of dried non-viable Mycobacterium butyricum cells were suspended in 0.1 ml of liquid paraffin followed by injection into the skin of the left hind limb of 7 week old female Lewis rats. The compounds obtained in the Examples were dissolved in sterilized distilled water and administered subcutaneously every day for two weeks from the 8th to 21st days after injection of adjuvant. During that time, the volumes of the right and left hind limbs were measured and the swelling rate was calculated according to the following formula: [formula]
# Moreover, the swelling inhibition rates were also determined according to the following formula, and those values are shown in Table 1. [formula]
# Soft X-ray radiographs were taken of the left and right hind limbs of the animals following sacrifice on day 22. The degree of bone destruction at five locations in the left and right hind limbs was evaluated based on the soft X-ray radiographs scoring those results among 5 ranks. Moreover, the bone destruction inhibition rate was calculated using the following formula, and those values are shown in Table 1. [formula]
# Those results that were significant at a level of significance of P<0.001 with respect to a control group administered only sterilized distilled water according to the Student's t-test and Chukey's multiple comparison method were indicated with three asterisks (***), those results that were significant at a level of significance of P<0.01 were indicated with two asterisks (**), and those significant at a level of significance of P<0.05 were indicated with one asterisk (*).
# The swelling inhibition rates for Example 7 and Example 33 are the values for day 14 and day 21.
# [2] = test system: IL-1 stimulated release of proteoglycan from cartilage cells; experiment: Proteoglycan release from IL-1 stimulated rabbit knee joint cartilage cells (35S label); format: cell-based, New Zealand White rabbits; conditions: 100 μM compound, IL-1β 30 units/ml, 24 hours
# Description: When cartilage from a rabbit knee joint is isolated and cultured followed by IL-1 stimulation, proteoglycan of glycoprotein, the major component of cartilage, is released. The IL-1 inhibitory action of compounds of the present invention was measured as described below using this action as an index.
# Exsanguination was performed on 3 week old, male New Zealand White rabbits having body weights of 250-300 g under diethyl ether anesthesia, after which the knee joints were removed. The cartilage portions of the knee joints were removed with a scalpel and immersed in a CMF solution comprising 0.14M sodium chloride, 4 mM potassium chloride, 0.4 mM sodium dihydrogen phosphate, 12 mM sodium bicarbonate, 0.2 mM potassium dihydrogen phosphate and 11 mM glucose. This cartilage was then placed in 0.1% EDTA and incubated for 20 minutes at 37° C. […]
# The cell layer was dissolved by adding 200 μg of pronase E and treating for 24 hours at 37° C. […] The precipitated proteoglycan was collected in a glass filter, added to a liquid scintillator and counted with a liquid scintillation counter. […]
# Each of the resulting counts were expressed as a percentage of the count obtained from the initially added inorganic sulfuric acid. […]
compound,measurement,setting,value
"CSc1ccc(SC(P(=O)(O)O)P(=O)(O)O)cc1 [Example 2, (4-methylthiophenyl)thiomethanediphosphonic acid]","Bone Destruction Inhibition Rate with respect to control group, Day 22","[1]; Day 22, soft X-ray score of left and right hind limbs",62.3%
same,"Swelling Inhibition Rate with respect to Control Group, Day 16, Left","[1]; left (adjuvant-injected) hind limb, Day 16",96.0%
same,"Swelling Inhibition Rate with respect to Control Group, Day 21, Left","[1]; left (adjuvant-injected) hind limb, Day 21",122.5%
same,"Swelling Inhibition Rate with respect to Control Group, Day 16, Right","[1]; right hind limb, Day 16",9.1%
same,"Swelling Inhibition Rate with respect to Control Group, Day 21, Right","[1]; right hind limb, Day 21",30.6%
same,"Proteoglycan count, Cell Layer (percentage of the count from initially added inorganic sulfuric acid)",[2]; cell layer,0.28 ± 0.019%
same,"Proteoglycan count, Cell Supernatant (percentage of the count from initially added inorganic sulfuric acid)",[2]; cell supernatant,0.74 ± 0.061%

# Reference: patent publication US5527940A, “Methanediphosphonate derivative, its manufacturing process and its pharmaceutical applications” (Toray Industries, Inc., priority 1991, dated 1996)
